These results are taken from PubChem BioAssay AID1259340 (Broad Institute, 2017).

In the assay the target is Caspase recruitment domain-containing protein 9 (Homo sapiens) + B-cell lymphoma/leukemia 10 (Homo sapiens) (UniProt Q9H257+O95999). The experiment in a line: disruptors of CARD9-BCL10 binding, dose response, selectivity assay for CARD9-TRIM62 disruptor project, cell lysate, HEK293FT lysates, Luminex bead ELISA (AID 1259340). Particulars: for activity change, negative = inhibition: at 80 µM (top of the series).
Caspase recruitment domain-containing protein 9 (Homo sapiens) + B-cell lymphoma/leukemia 10 (Homo sapiens), sequence (O95999 whole entry, looked up, the tested form may be a part): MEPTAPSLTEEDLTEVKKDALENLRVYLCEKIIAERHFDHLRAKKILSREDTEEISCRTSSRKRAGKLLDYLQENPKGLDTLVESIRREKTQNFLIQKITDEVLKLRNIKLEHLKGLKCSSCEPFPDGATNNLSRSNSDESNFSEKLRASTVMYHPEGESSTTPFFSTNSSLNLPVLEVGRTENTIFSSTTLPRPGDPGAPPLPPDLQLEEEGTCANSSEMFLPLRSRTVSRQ
Caspase recruitment domain-containing protein 9 (Homo sapiens) + B-cell lymphoma/leukemia 10 (Homo sapiens), sequence (Q9H257 whole entry, looked up, the tested form may be a part): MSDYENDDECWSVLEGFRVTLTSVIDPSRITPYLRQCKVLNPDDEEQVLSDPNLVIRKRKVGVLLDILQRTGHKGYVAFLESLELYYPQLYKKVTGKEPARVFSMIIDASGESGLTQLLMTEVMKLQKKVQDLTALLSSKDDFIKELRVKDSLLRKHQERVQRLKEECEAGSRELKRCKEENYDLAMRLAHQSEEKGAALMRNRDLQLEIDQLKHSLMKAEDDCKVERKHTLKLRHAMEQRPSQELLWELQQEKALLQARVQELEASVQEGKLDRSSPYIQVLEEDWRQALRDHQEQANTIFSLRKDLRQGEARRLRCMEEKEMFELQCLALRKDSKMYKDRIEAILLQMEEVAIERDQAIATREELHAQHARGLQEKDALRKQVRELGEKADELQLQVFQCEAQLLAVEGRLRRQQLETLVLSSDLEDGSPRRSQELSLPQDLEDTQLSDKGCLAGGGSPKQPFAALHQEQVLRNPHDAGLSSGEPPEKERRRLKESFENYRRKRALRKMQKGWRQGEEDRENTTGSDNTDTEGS

The source made the active and inactive calls.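 Rule for the calls: active = AC50 no more than ten times the top concentration tested; inconclusive = flat fit with inhibition between 30% and 70%, or unusable fit; inactive = AC50 beyond ten times the top concentration.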

For `NC(=O)c1ccc(CN2C(=O)C3(CCNCC3)Nc3ccccc32)cc1`, the AC50 is > 160 µM (inactive).

Regarding `O=C(Nc1nc(-c2ccco2)c(-c2ccco2)s1)c1ccco1`, the “activity change, negative = inhibition” value is “inactive”.

With `O=C(Nc1nc(-c2nc3ccccc3s2)cs1)c1ccco1`, the “activity change, negative = inhibition” value is “inactive”.

With `O=C(COC(=O)c1ccc(S(=O)(=O)NCc2ccco2)cc1)Nc1ccc(Cl)cn1`, the “activity change, negative = inhibition” value was “inactive”.

On to `O=C(Nc1nccs1)c1cc(-c2ccccn2)nc2c(Cl)cccc12`, for which the AC50 is 41.1 µM.

Take `O=C1CS/C(=N\N=C\c2ccco2)N1c1ccccc1`: the AC50 was > 160 µM (inactive).

Turning to `CCN1CCN(C(=O)c2cc(-c3ccco3)nc3ccccc23)CC1`, the AC50 is > 160 µM (inactive).

Regarding `Cc1cncc(-c2ccc(S(N)(=O)=O)cc2F)c1`, the “activity change, negative = inhibition” value is “inactive”.

Consider `O=C(Nc1nnc(-c2ccco2)s1)c1ccccc1`, for which the “activity change, negative = inhibition” value was “inactive”.

As for `COc1ccc(-n2c(C)c3c(OC)cccc(=O)c3c2C)cc1`, the AC50 was > 160 µM (inactive).

On to `c1coc(-c2cn3ccc4ccccc4c3n2)c1`, for which the “activity change, negative = inhibition” value was “inactive”.

In the case of `O=C(COC(=O)c1cc(-c2ccco2)nc2ccccc12)NCc1ccccc1`, the “activity change, negative = inhibition” value is “inactive”.

As to `O=S(=O)(Nc1nc2ccc(S(=O)(=O)N3CCCCC3)cc2s1)c1ccccc1`, the “activity change, negative = inhibition” value was “inactive”.

Consider `CC1(C)Cc2ccccc2-c2nc(-c3ccccc3)oc(=O)c21`, for which the “activity change, negative = inhibition” value was “inactive”.

For `O=C(CN1CCOC1=O)N1CCC2(CCC(=O)N(CCCn3ccnc3)C2)CC1`, the “activity change, negative = inhibition” value was “inactive”.

Take `O=C1CC2(CCN(C(=O)Nc3ccccc3)CC2)CN1Cc1ccc(Cl)cc1`: the AC50 was 79.7 µM.

`CCCc1cc(C(=O)N2CC[C@H]3CNC[C@H]32)n(C)n1`: the “activity change, negative = inhibition” value is “inactive”.

In the case of `Cc1ccc(C(=O)Nc2cnc(N3CCC(C(N)=O)(N4CCCCC4)CC3)c(C(=O)O)c2)cc1`, the “activity change, negative = inhibition” value is “inactive”.

For `CC(=O)Nc1ccc(Nc2nc(-c3nnc(-c4cccc(C)c4)o3)nc3ccccc23)cc1`, the concentration at half-maximal activity (AC50) was 72.4 µM.

For `Cc1nc(C)c(C(=O)Nc2ncc([N+](=O)[O-])s2)o1`, the AC50 is 66 µM.

Regarding `CC(C)C(CC(=O)NCc1ccco1)c1ccco1` (stereo not drawn), the “activity change, negative = inhibition” value is “inactive”.

As to `COc1ccc(S(=O)(=O)c2ccccc2)cc1NS(=O)(=O)c1cccc(C(=O)O)c1`, the “activity change, negative = inhibition” value is “inactive”.

For `COc1cccc(NC(=O)CN(C)C(=O)c2cc3c(s2)CCC3)c1`, the AC50 was > 160 µM (inactive).

As for `CCOC(=O)C1CCN(C(=O)CN(Cc2ccccc2)S(C)(=O)=O)CC1`, the “activity change, negative = inhibition” value was “inactive”.

Turning to `O=C(COc1cccnc1[N+](=O)[O-])c1ccc(Cl)s1`, the AC50 is 40 µM.

As for `O=C(COC(=O)c1cc(-c2cccs2)nc2ccccc12)NCc1ccco1`, the AC50 is > 160 µM (inactive).

For `C=CCNc1ncnc2c1CCN(C(=O)c1ccc(CSC)o1)CC2`, the AC50 was > 160 µM (inactive).

As for `CCc1nccn1CCC(=O)N1C[C@H](CO)C[C@H](CN2CCCC2)C1`, the “activity change, negative = inhibition” value is “inactive”.

As to `CCCN1CCCn2nc(CNC(=O)[C@@H](N)Cc3ccc(O)cc3)cc2C1`, the “activity change, negative = inhibition” value is “inactive”.

For the compound `OCc1ccc(O)c2ncccc12`, the “activity change, negative = inhibition” value is “inactive”.

Take `CCCc1oc(C(=O)O)cc1CN`: the “activity change, negative = inhibition” value is “inactive”.

With `c1ccc(-c2nc(-c3ccco3)n3ccccc23)cc1`, the AC50 was > 160 µM (inactive).

With `O=C1C=C(c2ccccc2)Nc2ccccc2N1`, the AC50 is > 160 µM (inactive).

Consider `O=C(NC1(C(F)(F)F)Oc2ccc(Cl)cc2O1)N1CCC2(CC1)OCCO2` (stereo not drawn), for which the AC50 is 74.8 µM.

Take `O=c1/c(=C/c2ccco2)sc2nc3ccccc3n12`: the “activity change, negative = inhibition” value was “inactive”.

`COc1ccc2nc(-c3ccco3)c(-c3ccco3)nc2c1`: the AC50 was 39.2 µM.

For `c1cn(CCc2noc(C3CCCC3)n2)c(-c2cc3n(n2)CCCNC3)n1`, the “activity change, negative = inhibition” value was “inactive”.

Regarding `Cc1ccc(N2C(=O)c3ccccc3C2C(=O)c2ccc(O)cc2O)cc1` (stereo not drawn), the “activity change, negative = inhibition” value is “inactive”.

With `O=C(O)CCc1ccc(-c2cccs2)n1NC(=O)c1ccco1`, the AC50 was > 160 µM (inactive).

On to `Cc1ccc2cc(CN(Cc3ccco3)S(C)(=O)=O)c(=O)[nH]c2c1`, for which the AC50 is > 160 µM (inactive).

As for `NC(=O)C1(N2CCCCC2)CCN(c2ccc(NC(=O)c3ccccc3F)cc2C(=O)O)CC1`, the “activity change, negative = inhibition” value was “inactive”.

As to `CCn1ccnc1C1CCN(C(=O)CCn2c(C)nc3ccccc32)CC1`, the “activity change, negative = inhibition” value was “inactive”.

Consider `O=[N+]([O-])c1cccc(-c2nnc3ccc4ccccc4n23)c1`, for which the AC50 is > 160 µM (inactive).

As to `CC(=O)c1cccc(OCC(=O)N(C)CC(=O)NCc2ccco2)c1`, the AC50 is > 160 µM (inactive).

Consider `CC(=O)c1ccc(NC(=O)c2noc3c2CCC3)cc1`, for which the “activity change, negative = inhibition” value is “inactive”.

As for `Cc1ccc(S(=O)(=O)Cc2ccc(C(=O)N3CCC4(CC3)OCCO4)o2)cc1`, the “activity change, negative = inhibition” value was “inactive”.

In the case of `C[C@H](CO)N1C[C@H](C)[C@@H](CN(C)CC2CCCCC2)OCCCC[C@H](C)Oc2ccc(NS(C)(=O)=O)cc2C1=O`, the “activity change, negative = inhibition” value is “inactive”.

As for `CCc1nc(OCc2ccco2)c2sc3nc4c(cc3c2n1)COC(C)(C)C4`, the “activity change, negative = inhibition” value was “inactive”.

For the compound `COc1ccc(-c2ccc(CCC(=O)O)o2)cc1`, the “activity change, negative = inhibition” value is “inactive”.

Take `O=C(O)COc1ccc(-n2cccc2)cc1`: the “activity change, negative = inhibition” value was “inactive”.

Consider `CN(C)c1ccc(CN2C[C@H]3CC[C@@H]2CN(C(=O)c2ccncc2)C3)cn1`, for which the AC50 was > 160 µM (inactive).

`Cc1ccc(N2NC(c3ccc(Br)cc3)=CCC2=O)cc1`: the “activity change, negative = inhibition” value is “inactive”.

As for `Cc1ccc(-c2cc(C(=O)NCc3ccco3)c3ccccc3n2)o1`, the AC50 is 80.3 µM.

Take `CC1CCN(c2nc(-c3ccco3)c3c(c2C#N)CC(C)(C)OC3)CC1`: the “activity change, negative = inhibition” value is “inactive”.

For the compound `O=C(O)c1ccc2nc(-c3ccco3)c(-c3ccco3)nc2c1`, the AC50 is 19.6 µM.

As to `CC1=CCC(C(=O)O)C(C(=O)NC2CCCCC2)C1` (stereo not drawn), the “activity change, negative = inhibition” value is “inactive”.

As for `COCC(=O)N1CCCC2(CCN(CCN3CCCC3)C2=O)C1` (stereo not drawn), the “activity change, negative = inhibition” value was “inactive”.

For `CCOc1ccccc1NC(=O)N1CCCC(c2nccn2CCOC)C1` (stereo not drawn), the AC50 is > 160 µM (inactive).

In the case of `CC(=O)c1sc2nc(-c3ccco3)ccc2c1N`, the concentration at half-maximal activity (AC50) is 26.1 µM.

With `O=C(NCCc1ccccc1)c1cc2cccnc2n(Cc2ccccc2)c1=O`, the “activity change, negative = inhibition” value was “inactive”.

For the compound `Cc1ccc(-c2nnc(-c3nc(Nc4nc5ccccc5s4)c4ccccc4n3)o2)cc1`, the AC50 is 64 µM.

For `O=C(Cc1ccc(S(=O)(=O)N2CCOCC2)s1)Nc1nc2c(s1)CCCC2`, the “activity change, negative = inhibition” value is “inactive”.

On to `C[C@H](CO)N1C[C@H](C)[C@@H](CN(C)CC2CCCCC2)OCCCC[C@H](C)Oc2ccc(NS(=O)(=O)c3ccc(F)cc3)cc2C1=O`, for which the AC50 was > 160 µM (inactive).
